Inhibition and IC50 data for 48 compounds are collected here from ChEMBL document CHEMBL1133317, “The solid phase synthesis of tetrahydroisoquinolines having cdc25B inhibitory activity” (Bioorg Med Chem Lett, 2000).

The target of test [1] is T1, M-phase inducer phosphatase 2 (Homo sapiens) (UniProt P30305).
T1 sequence (whole entry): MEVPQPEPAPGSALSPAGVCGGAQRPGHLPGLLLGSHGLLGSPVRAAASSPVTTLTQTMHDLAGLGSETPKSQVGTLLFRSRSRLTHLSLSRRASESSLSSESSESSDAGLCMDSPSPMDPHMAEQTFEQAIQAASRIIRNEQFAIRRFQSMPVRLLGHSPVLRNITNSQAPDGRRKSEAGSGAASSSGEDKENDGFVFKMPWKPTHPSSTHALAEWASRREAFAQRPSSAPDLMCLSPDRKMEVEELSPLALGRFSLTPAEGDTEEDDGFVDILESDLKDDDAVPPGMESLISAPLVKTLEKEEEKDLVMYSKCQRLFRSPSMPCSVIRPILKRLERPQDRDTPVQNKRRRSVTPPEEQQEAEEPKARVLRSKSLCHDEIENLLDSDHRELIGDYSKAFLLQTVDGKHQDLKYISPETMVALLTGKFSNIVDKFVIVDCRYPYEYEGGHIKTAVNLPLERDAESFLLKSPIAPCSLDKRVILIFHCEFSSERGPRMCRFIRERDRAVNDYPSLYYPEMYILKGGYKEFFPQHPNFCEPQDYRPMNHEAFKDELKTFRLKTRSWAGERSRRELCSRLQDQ
Briefly: Inhibitory activity against Cell division cycle 25B at 100 uM.

In test [2] the target is T2, M-phase inducer phosphatase 2 (Homo sapiens, UniProt P30305).
T2 sequence (P30305 whole entry): T1 sequence (whole entry)
As to the kind of experiment: Compound was measured for its inhibitory activity against Cell division cycle 25B.

Broadly, the inhibition is the drop in the measured response relative to a control, in per cent. Compound `N#C/C(=C\c1ccccc1)C(=O)N1Cc2c(cc(I)c(O)c2I)C[C@H]1C(=O)O` yielded an inhibition in test [1] of 12%.

In turn, `C/C(=C\c1ccccc1)C(=O)N1Cc2c(cc(I)c(OCC(=O)OCc3ccccc3)c2I)C[C@H]1C(=O)O` displayed an inhibition in test [1] of 24%.

In turn, `COc1cccc(COc2c(I)cc3c(c2I)CN(C(=O)/C=C/c2ccccc2F)[C@H](C(=O)O)C3)c1` had an inhibition in test [1] of 34%.

For the compound `COc1cccc(COc2c(I)cc3c(c2I)CN(C(=O)/C=C/c2cc(OC)c(OC)c(OC)c2)[C@H](C(=O)O)C3)c1`, in test [1], the inhibition worked out at 25%.

Regarding `COc1cccc(COc2c(I)cc3c(c2I)CN(C(=O)/C=C/c2ccccc2C(F)(F)F)[C@H](C(=O)O)C3)c1`, the inhibition in test [1] is 28%.

In test [1], `O=C(O)[C@@H]1Cc2cc(I)c(OCc3cccc(C(F)(F)F)c3)c(I)c2CN1C(=O)/C=C/c1ccc(Cl)cc1` returned an inhibition of 22%.

In test [1], `N#C/C(=C\c1ccccc1)C(=O)N1Cc2c(cc(I)c(OCCCCl)c2I)C[C@H]1C(=O)O` came in with an inhibition of 11%.

On to `COc1cccc(COc2c(I)cc3c(c2I)CN(C(=O)/C=C/c2cccc(F)c2)[C@H](C(=O)O)C3)c1`, for which the inhibition in test [1] stood at 41%.

Usually IC50 stands for the point on the concentration scale where inhibition reaches its midpoint. The low end stands for greater potency, the high end for weaker potency. `O=C(O)[C@@H]1Cc2cc(I)c(OCc3ccc(Cl)cc3Cl)c(I)c2CN1C(=O)/C(F)=C/c1ccccc1` had a concentration for half-maximal inhibition (IC50) in test [2] of 36 µM.

In the case of `O=C(O)[C@@H]1Cc2cc(I)c(OCc3ccc(Cl)cc3Cl)c(I)c2CN1C(=O)/C=C/c1cccc(Br)c1`, the IC50 in test [2] turned out to be 40 µM.

Turning to `O=C(O)[C@@H]1Cc2cc(I)c(OCc3ccc(C(F)(F)F)cc3)c(I)c2CN1C(=O)/C=C/c1ccc(Cl)cc1`, in test [2], half-maximal inhibition (IC50) required 30 µM.

`N#C/C(=C\c1ccccc1)C(=O)N1Cc2c(cc(I)c(OCC(=O)OCc3ccccc3)c2I)C[C@H]1C(=O)O` returned an inhibition in test [1] of 36%.

In test [2], `O=C(O)[C@@H]1Cc2cc(I)c(OCc3ccc(Cl)cc3Cl)c(I)c2CN1C(=O)/C=C/c1ccc(Cl)c(Cl)c1` came in with an IC50 of 30 µM.

As for `O=C(COc1c(I)cc2c(c1I)CN(C(=O)/C(F)=C/c1ccccc1)[C@H](C(=O)O)C2)OCc1ccccc1`, half-maximal inhibition in test [2] (IC50) was put at 90 µM.

In test [2], `O=C(O)[C@@H]1Cc2cc(I)c(OCc3ccc(Cl)cc3Cl)c(I)c2CN1C(=O)/C=C/c1ccccc1Cl` showed a concentration for half-maximal inhibition (IC50) of 15 µM.

Regarding `C/C(=C\c1ccccc1)C(=O)N1Cc2c(cc(I)c(OCCCCl)c2I)C[C@H]1C(=O)O`, the inhibition in test [1] turned out to be 12%.

Take `O=C(COc1c(I)cc2c(c1I)CN(C(=O)/C=C/c1ccc(Cl)cc1Cl)[C@H](C(=O)O)C2)OCc1ccccc1`: the IC50 in test [2] worked out at 28 µM.

Take `O=C(O)[C@@H]1Cc2cc(I)c(OCc3ccc(Cl)cc3Cl)c(I)c2CN1C(=O)/C=C/c1ccc([N+](=O)[O-])cc1`: 45 µM corresponded to half-maximal inhibition in test [2] (IC50).

For `O=C(O)[C@@H]1Cc2cc(I)c(OCc3cccc(C(F)(F)F)c3)c(I)c2CN1C(=O)c1cccnc1Cl`, the midpoint of inhibition in test [2], the IC50, lay at 30 µM.

`Cc1ccc(/C=C/C(=O)N2Cc3c(cc(I)c(OCc4ccc(Cl)cc4Cl)c3I)C[C@H]2C(=O)O)cc1` showed an IC50 in test [2] of 27 µM.

Turning to `O=C(O)[C@@H]1Cc2cc(I)c(OCc3cccc(C(F)(F)F)c3)c(I)c2CN1C(=O)/C=C/c1ccc([N+](=O)[O-])cc1`, in test [2], 50 µM corresponded to half-maximal inhibition (IC50). This IC50 is about 1.9-fold higher than that of the compound before.

With `O=C(COc1c(I)cc2c(c1I)CN(C(=O)/C=C/c1ccc(Br)cc1)[C@H](C(=O)O)C2)OCc1ccccc1`, it took 90 µM to reach half-maximal inhibition in test [2] (IC50).

Consider `O=C(O)[C@@H]1Cc2cc(I)c(OCc3cccc(C(F)(F)F)c3)c(I)c2CN1C(=O)/C=C/c1cccc(Cl)c1`, for which inhibition in test [2] was half-maximal at 40 µM (IC50).

Compound `O=C(O)[C@@H]1Cc2cc(I)c(OCc3ccc(Cl)cc3Cl)c(I)c2CN1C(=O)c1cccnc1Cl` showed an IC50 in test [2] greater than 100 µM.

The compound `O=C(O)[C@@H]1Cc2cc(I)c(OCc3ccc(C(F)(F)F)cc3)c(I)c2CN1C(=O)/C=C/c1cccc(F)c1` came in with an IC50 in test [2] of 30 µM. In other words, the double-digit micromolar range.

Consider `COc1cccc(COc2c(I)cc3c(c2I)CN(C(=O)/C=C/c2ccc(Cl)cc2)[C@H](C(=O)O)C3)c1`, for which, in test [2], half-maximal inhibition (IC50) required 75 µM.

In test [2], `Cc1ccc(/C=C/C(=O)N2Cc3c(cc(I)c(OCc4ccc(C(F)(F)F)cc4)c3I)C[C@H]2C(=O)O)cc1` came in with an IC50 of 35 µM.

Turning to `O=C(O)[C@@H]1Cc2cc(I)c(OCc3ccc(Cl)cc3Cl)c(I)c2CN1C(=O)/C=C/c1cccc(Cl)c1`, half-maximal inhibition in test [2] (IC50) was put at 35 µM.

With `O=C(O)[C@@H]1Cc2cc(I)c(OCc3ccc(Cl)cc3Cl)c(I)c2CN1C(=O)CCc1ccccc1`, the midpoint of inhibition in test [2], the IC50, lay at 50 µM. This IC50 and that of the compound before are within 1.5-fold of each other.

`O=C(O)[C@@H]1Cc2cc(I)c(OCc3ccc(Cl)cc3Cl)c(I)c2CN1C(=O)/C=C/c1ccc(Cl)cc1`: the 50% inhibitory concentration (IC50) in test [2] is 35 µM.

With `O=C(COc1c(I)cc2c(c1I)CN(C(=O)/C=C/c1ccccc1Br)[C@H](C(=O)O)C2)OCc1ccccc1`, in test [2], the concentration for half-maximal inhibition (IC50) stood at 45 µM. The IC50 values of the last two compounds are within 1.5-fold of each other.

Consider `O=C(O)[C@@H]1Cc2cc(I)c(OCc3c(Cl)cccc3Cl)c(I)c2CN1C(=O)CCc1ccccc1`, for which, in test [2], the IC50 is greater than 100 µM.

Take `COc1cccc(COc2c(I)cc3c(c2I)CN(C(=O)/C=C/c2ccc(C)cc2)[C@H](C(=O)O)C3)c1`: in test [2], the IC50 was 62 µM. This lies in the double-digit micromolar range.

The compound `O=C(O)[C@@H]1Cc2cc(I)c(OCc3cccc(C(F)(F)F)c3)c(I)c2CN1C(=O)CCc1ccccc1` showed a 50% inhibitory concentration (IC50) in test [2] of 50 µM.

Take `O=C(O)[C@@H]1Cc2cc(I)c(OCCCCl)c(I)c2CN1C(=O)/C=C/c1ccccc1Cl`: the IC50 in test [2] worked out at 27 µM.

`COc1cc(/C=C/C(=O)N2Cc3c(cc(I)c(OCc4ccc(C(F)(F)F)cc4)c3I)C[C@H]2C(=O)O)cc(OC)c1OC` returned a concentration for half-maximal inhibition (IC50) in test [2] of 57 µM.

In turn, `O=C(O)[C@@H]1Cc2cc(I)c(OCc3c(Cl)cccc3Cl)c(I)c2CN1C(=O)/C=C/c1cccc(C(F)(F)F)c1` gave a 50% inhibitory concentration (IC50) in test [2] of 35 µM.

Regarding `O=C(O)[C@@H]1Cc2cc(I)c(OCc3ccccc3F)c(I)c2CN1C(=O)CCc1ccccc1`, the concentration for half-maximal inhibition (IC50) in test [2] was found to be 80 µM.

In test [2], `O=C(O)[C@@H]1Cc2cc(I)c(OCc3cccc(C(F)(F)F)c3)c(I)c2CN1C(=O)/C=C/c1ccccc1F` came in with an IC50 of 35 µM.

The compound `O=C(O)[C@@H]1Cc2cc(I)c(OCc3ccc(C(F)(F)F)cc3)c(I)c2CN1C(=O)/C=C/c1ccc([N+](=O)[O-])cc1` displayed an IC50 in test [2] of 55 µM.

Turning to `O=C(O)[C@@H]1Cc2cc(I)c(OCCCCl)c(I)c2CN1C(=O)/C=C/c1ccccc1Br`, in test [2], the half-maximal inhibitory concentration (IC50) amounted to 33 µM.

In test [2], `C/C(=C\c1ccccc1)C(=O)N1Cc2c(cc(I)c(OCc3ccc(Cl)cc3Cl)c2I)C[C@H]1C(=O)O` gave an IC50 of 40 µM. This IC50 and that of the compound before are within 1.5-fold of each other.

Turning to `O=C(O)[C@@H]1Cc2cc(I)c(OCc3ccccc3F)c(I)c2CN1C(=O)/C=C/c1cccc(C(F)(F)F)c1`, inhibition in test [2] was half-maximal at 45 µM (IC50). The IC50 values of the last two compounds are within 1.5-fold of each other.

`O=C(O)[C@@H]1Cc2cc(I)c(OCc3ccc(Cl)cc3Cl)c(I)c2CN1C(=O)/C=C/c1ccccc1F` displayed an inhibition in test [1] of 32%.

The compound `O=C(O)[C@@H]1Cc2cc(I)c(OCc3cccc(C(F)(F)F)c3)c(I)c2CN1C(=O)/C=C/c1cccc(C(F)(F)F)c1` showed an IC50 in test [2] of 50 µM.

In the case of `O=C(O)C1Cc2cc(I)c(OCc3c(Cl)cccc3Cl)c(I)c2CN1C(=O)C1CCCC1` (stereo not drawn), half-maximal inhibition in test [2] (IC50) required 100 µM. Against the preceding compound, the IC50 is about 2-fold higher.

The compound `O=C(O)[C@@H]1Cc2cc(I)c(OCc3cccc(C(F)(F)F)c3)c(I)c2CN1C(=O)/C=C/c1ccccc1C(F)(F)F` came in with a concentration for half-maximal inhibition (IC50) in test [2] of 36 µM.

On to `O=C(O)[C@@H]1Cc2cc(I)c(OCc3ccccc3F)c(I)c2CN1C(=O)/C=C/c1cccc(Cl)c1`, for which, in test [2], the IC50 worked out at 60 µM.
